Experimental data reported in patent US20120076788A1, “C-CBL AND ANTAGONISTS THEREOF FOR THE TREATMENT AND DIAGNOSIS OF CANCER” (Centre National De La Recherche Scientifique (C.N.R.S.), priority 2009, published 2012).
Entries after “also recorded” stand apart in the source; their conditions may differ.

Key:
[1] = tested on: c-Cbl KO and WT Mouse Embryonic Fibroblasts (MEF); test: Western blotting of apoptosis proteins in c-Cbl KO and WT MEFs treated with apoptotic inducers; format: cell-based; conditions: for XIAP expression, decrease relative to control level / c-IAP2 expression, decrease relative to control level: MEFs, apoptosis activation 24 hours (FIG. 3B)
Experimental: The western blotting (WB) experiments, immunohistochemistry (IHC) experiments and RT PCR experiments, with coamplification of the S 20 ribosomal gene, were carried out according to conventional methods already described in e.g. Omezzine et al. (2003, Biol. Reprod., 69: 752-760), Bozec et al. (2004, J. Endocr., 183: 79-90) and El Chami et al. (2005, J. Cell. Biol., 651-661).
The MEFs KO for c-cbl and the MEFs WT were cultured in DMEM, 10% FCS. The apoptosis inducers were used at a final concentration of 0.5 mM in case of H2O2, and at 10 μM in case of etoposide. The cells were tested for apoptosis 24 hours after treatment. The human prostate cancer lines were transfected with 125 nM of c-cbl IRNA for 6 hours, and were tested for quenching of c-cbl expression 24 or 48 hours after transfection. The treatment was the same with RAT1-MEN2A cells.
(§1) Each of them are known to involve different signaling routes, both leading to the mitochondrial pathway of apoptosis. Hydrogen peroxide activates C-Jun Kinase, whereas Etoposide blocks topoisomerase II causing dsDNA breaks and DNA-PK/p53 activation (DeYulia et al. 2005 Proc Natl Acad Sci USA 102:5044-9; Kamata and Hirata 1999 Cell Signal 11:1-14; Karpinich et al. 2002 J Biol Chem 277:16547-52).

[2] = tested on: c-Cbl KO and WT Mouse Embryonic Fibroblasts (MEF); test: Apoptotic cells (DAPI nuclear fragmentation, TUNEL) in c-Cbl KO and WT MEFs treated with H2O2 or Etoposide; format: cell-based; set-up: more apoptotic cells in KO than in WT MEF cultures: dose or concentration left out as unconfirmed; conditions: for more apoptotic cells in KO than in WT MEF cultures: average, 16 or 24 H
Experimental: The MEFs KO for c-cbl and the MEFs WT were cultured in DMEM, 10% FCS. […] The cells were tested for apoptosis 24 hours after treatment. The human prostate cancer lines were transfected with 125 nM of c-cbl IRNA for 6 hours, and were tested for quenching of c-cbl expression 24 or 48 hours after transfection. The treatment was the same with RAT1-MEN2A cells.
as §1

[3] = tested on: LNCaP cells; test: Protein expression in LNCaP cells cultured with hydrogen peroxide or etoposide; format: cell-based, human; conditions: 24 hours; for Bax protein expression: particularly upon etoposide treatment; for Bcl-2 expression / c-Cbl expression / c-IAP2 expression: versus absence of agent
Experimental: (§2) A. c-Cbl expression upon a 24 hours treatment with 25 or 50 nM of hydrogen peroxide respectively, or with 10 or 30 μM of etoposide respectively. Expression of the anti-apoptotic Bcl-2 and c-IAP2 proteins and of the pro-apoptotic Bcl-2 family protein Bax is also shown. B. c-Cbl expression after 48 hours of c-Cbl silencing. Expression of APE1, which is indicative of oxidative stress, is shown compared with medium control (Ctrl) and with si-control (si-Ctrl).
(§3) LNCaP is a human cell line, derived from a prostatic hormone-dependent metastatic tumor. The cells were maintained in RPMI 1640 medium (Invitrogen), supplemented with 7.5% FCS, 20 μg/ml streptomycin, 20 U/ml nystatin. LNCaP were used between the passages 50-60. For western-blotting LNCaP cells were seeded in 10cm disk (22.10^5 cells) and 6 cm disk (8.10^5 cells) respectively, with 5 disks per condition. Cells were allowed to attach for 24H and treated with various concentrations of R1881 at day 0. All the cells, including the controls, were cultured in the presence of the same ethanol concentration. For H2O2 or etoposide treatment, LNCaP cells were cultured for 24 hours in the presence of known concentrations of H2O2 or etoposide. The RNA silencing was classically done in Optimen medium (Gibco) using lipofectamine 2000 following the manufacturer's instructions (Invitrogen). The c-Cbl RNAi was generated by Eurogentec. Its sequence is: […] (SEQ ID NO: 2). The siRNA controls were purchased from Invitrogen : siRNA-A (sc-37007) and siRNA-B (sc-44230).

[4] = tested on: c-Cbl; test: c-Cbl expression (Western blotting, RT-PCR) in prostate lobes of adult rats exposed to flutamide; format: in vivo, rat
[5] = tested on: c-Cbl; test: In situ c-Cbl staining of rat prostate after flutamide treatment; format: in vivo; conditions: 10mg/kg/day, 96 H
[6] = tested on: cbl-b; test: Effectiveness of c-cbl iRNA on cbl-b
Description: (§4) The c-cbl IRNA was produced by Eurogentec and had the following sequences: 5′ […] 3′ (SEQ ID NO: 2) and 5′ […] 3′ (SEQ ID NO: 3). It is effective on human, rat and mouse c-cbl. It is ineffective on cbl-b.

[7] = tested on: LNCaP cells; test: c-Cbl silencing in LNCaP cells, APE1/REF1 oxidative stress signal; format: cell-based, human; conditions: 48 hours of c-Cbl silencing, versus Ctrl and si-Ctrl
Experimental: as §2
as §3, with “(SEQ ID NO: 2). The siRNA controls were purchased from Invitrogen : siRNA-A (sc-37007) and siRNA-B (sc-44230).” left out

[8] = tested on: c-cbl; test: Effectiveness of c-cbl iRNA on c-cbl; conditions: human, rat and mouse c-cbl
Description: as §4

Molecule	cleaved caspase 3 expression ([1]; KO or WT MEFs, 24 hours)	XIAP expression, decrease relative to control level [1]	c-IAP2 expression, decrease relative to control level [1]	percentage of apoptotic cells ([2]; WT MEF cultures) [%]	more apoptotic cells in KO than in WT MEF cultures [2] [%]	percentage of apoptotic cells ([2]; c-Cbl KO MEF cultures) [%]	Bax protein expression [3]	Bcl-2 expression [3]	c-Cbl expression [3]	c-IAP2 expression [3]	activated caspase 3 expression increase ([1]; WT MEFs, 24 hours)	cleaved (activated) caspase 3 expression relative to control ([1]; c-Cbl KO MEFs, 24 hours)	sensitivity of c-cbl KO MEF cells versus WT MEF cells ([2]; TUNEL, FIG. 10)	c-Cbl expression ([3]; listed as H202)	dose from which decreased c-cbl expression was observed ([4]; dose/effect experiments, rat ventral prostate) [mg/kg/day]	impact on the number of living cells ([4]; doses 2 to 10 mg/kg/day)	integrity of the epithelium border [5]	effectiveness on cbl-b [6]	anti-APE1/REF1 signal (oxidative stress) [7]	effectiveness on c-cbl [8]
COc1cc([C@@H]2c3cc4c(cc3[C@@H](O[C@@H]3O[C@@H]5CO[C@@H](C)O[C@H]5[C@H](O)[C@H]3O)[C@H]3COC(=O)[C@H]23)OCO4)cc(OC)c1O [Etoposide]	slight but not significant increase	around one/third	around one/third	5.8	29	4	increased	slightly less expressed	slightly less expressed; also recorded: decreased	slightly less expressed	–	–	–	–	–	–	–	–	–	–
OO [H2O2, Hydrogen peroxide]	–	around one/third	around one/third	4.9	43	8.75	increased	slightly less expressed	slightly less expressed	slightly less expressed	two times	three times and half	about twice	decreased	–	–	–	–	–	–
CC(C)C(=O)Nc1ccc([N+](=O)[O-])c(C(F)(F)F)c1 [flutamide]	–	–	–	–	–	–	–	–	–	–	–	–	–	–	≥ 2	very weak impact	did not affect at all	–	–	–
c-cbl IRNA: c-cbl iRNA produced by Eurogentec, sequences SEQ ID NO: 2 and SEQ ID NO: 3 (chain 1 GGGAAGGCUUCUAUUUGUU; chain 2 CUGUCCAUCUAGAGACAAA; listed as RNA, chemistry not given here)	–	–	–	–	–	–	–	–	–	–	–	–	–	–	–	–	–	ineffective	slight decrease	effective
